A short description of series [1]: Metabolic stability in human liver microsomes. The format is in vitro ADME. The following applies: 0.25 μM test compound; for % Parent Remaining (30 min) Ave ± SD: human liver microsomes 2.0 mg/mL, 2 mM NADPH, pH 7.4, 37° C.; for half-life at 0.25 μM: pH 7.4, in vitro t1/2 in human liver microsomes 2.0 mg/mL, NC = not calculable due to <20% metabolism in HLM and flat profiles, read-out: t1/2 (min) Ave ± SD. As to the method: Microsomal Assay: Human liver microsomes (20 mg/mL) were obtained from Xenotech, LLC (Lenexa, Kans.). β-nicotinamide adenine dinucleotide phosphate, reduced form (NADPH), magnesium chloride (MgCl2), and dimethyl sulfoxide (DMSO) were purchased from Sigma-Aldrich.
Determination of Metabolic Stability: 7.5 mM stock solutions of test compounds were prepared in DMSO. The 7.5 mM stock solutions were diluted to 12.5 μM in acetonitrile (ACN). The 20 mg/mL human liver microsomes were diluted to 2.5 mg/mL in 0.1 M potassium phosphate buffer, pH 7.4, containing 3 mM MgCl2. The diluted microsomes were added to wells of a 96-well deep-well polypropylene plate in triplicate. […] of the 12.5 μM test compound was added to the microsomes and the mixture was pre-warmed for 10 minutes. Reactions were initiated by addition of pre-warmed NADPH solution. The final reaction volume was 0.5 mL and contains 2.0 mg/mL human liver microsomes, 0.25 μM test compound, and 2 mM NADPH in 0.1 M potassium phosphate buffer, pH 7.4, and 3 mM MgCl2. The reaction mixtures were incubated at 37° C., and 50 μL aliquots were removed at 0, 5, 10, 20, and 30 minutes and added to shallow-well 96-well plates which contain 50 μL of ice-cold ACN with internal standard to stop the reactions. The plates were stored at 4° C. for 20 minutes after which 100 μL of water was added to the wells of the plate before centrifugation to pellet precipitated proteins. Supernatants were transferred to another 96-well plate and analyzed for amounts of parent remaining by LC-MS/MS using an Applied Bio-systems API 4000 mass spectrometer. The same procedure was followed for TPA-023 and the positive control, 7-ethoxycoumarin (1 μM). Testing was done in triplicate and individual compounds were tested in two or four different runs.
The in vitro t1/2s for test compounds were calculated from the slopes of the linear regression of % parent remaining (ln) vs incubation time relationship: in vitro t1/2=0.693/k k=−[slope of linear regression of % parent remaining (ln) vs incubation time]. Data analysis was performed using Microsoft Excel Software.
The results of these experiments are shown in Table 3, below, and in FIGS. 1 and 2. In the Table and the two Figures, “% Parent remaining” refers to the percentage of starting material remaining at the specified time point.

For series [2] the following is noted: humans, phase I clinical trial, cited from earlier work.

SMILES strings stand for the structures.

In the case of `[2H]C([2H])([2H])n1ncnc1COc1nn2c(-c3ccccc3F)nnc2cc1C(C([2H])([2H])[2H])(C([2H])([2H])[2H])C([2H])([2H])[2H]` [Compound 109, 7-d9-tert-Butyl-3-(2-fluorophenyl)-6-((1-d3-methyl-1H-1,2,4-triazol-5-yl)methoxy)-[1,2,4]triazolo[4,3-b]pyridazine], the “% Parent Remaining (30 min) Ave ± SD” value in series [1] is on record as 100 ± 5.7%. On to `[2H]C([2H])(Oc1nn2c(-c3ccccc3F)nnc2cc1C(C([2H])([2H])[2H])(C([2H])([2H])[2H])C([2H])([2H])[2H])c1ncnn1C([2H])([2H])C([2H])([2H])[2H]` [Compound 106, 7-d9-tert-Butyl-6-((1-d5-ethyl-1H-1,2,4-triazol-5-yl)-methoxy-d2)-3-(2-fluorophenyl)-[1,2,4]triazolo[4,3-b]pyridazine], for which the “% Parent Remaining (30 min) Ave ± SD” value in series [1] is listed as 89 ± 2.5%.

As to `[2H]C([2H])([2H])C(c1cc2nnc(-c3ccccc3F)n2nc1OCc1ncnn1CC)(C([2H])([2H])[2H])C([2H])([2H])[2H]` [Compound 102, 7-d9-tert-Butyl-6-((1-ethyl-1H-1,2,4-triazol-5-yl)methoxy)-3-(2-fluorophenyl)-[1,2,4]-triazolo[4,3-b]pyridazine], in series [1], the “% Parent Remaining (30 min) Ave ± SD” value amounted to 80 ± 3.3% and the half-life at 0.25 μM is 85.6 ± 6.1 min. As for `CCn1ncnc1COc1nn2c(-c3ccccc3F)nnc2cc1C(C)(C)C` [TPA023, 7-tert-Butyl-6-(1-ethyl-1H-1,2,4-triazol-5-ylmethoxy)-3-(2-fluorophenyl)-1,2,4-triazolo[4,3-b]pyridazine], the sedative effects entry in series [2] (certain doses tested) is given as “sedative effects at certain doses tested”. In addition, in series [2], the anxiolytic effects result is “anxiolytic effects” and the “effect on alertness, muscle relaxation or memory” value is “no effect”. In addition, in series [1], the “% Parent Remaining (30 min) Ave ± SD” value was found to be 62 ± 3.1% and the half-life at 0.25 μM is 44.5 ± 4.4 min. On to `[2H]C([2H])(Oc1nn2c(-c3ccccc3F)nnc2cc1C(O)(C([2H])([2H])[2H])C([2H])([2H])[2H])c1ncnn1C([2H])([2H])C([2H])([2H])[2H]` [Compound 206, 2-(6-((1-d5-Ethyl-1H-1,2,4-triazol-5-1)methoxy-d2)-3-(2-fluorophenyl)-[1,2,4]triazolo[4,3-b]pyridazin-7-yl)propan-1,1,1,3,3,3-d6-2-ol], for which the “% Parent Remaining (30 min) Ave ± SD” value in series [1] was 92 ± 3.5%. Turning to `[2H]C([2H])(Oc1nn2c(-c3ccccc3F)nnc2cc1C(C([2H])([2H])[2H])(C([2H])([2H])[2H])C([2H])([2H])[2H])c1ncnn1C([2H])([2H])[2H]` [Compound 110, 7-d9-tert-Butyl-3-(2-fluorophenyl)-6-((1-d3-methyl-1H-1,2,4-triazol-5-yl)-methoxy-d2)-[1,2,4]triazolo[4,3-b]pyridazine], the “% Parent Remaining (30 min) Ave ± SD” value in series [1] came to 91 ± 7.1%. Still for that read-out and setting: in the case of `[2H]C([2H])([2H])C(O)(c1cc2nnc(-c3ccccc3F)n2nc1OCc1ncnn1CC)C([2H])([2H])[2H]` [Compound 202, 2-(6-((1-ethyl-1H-1,2,4-triazol-5-yl)methoxy)-3-(2-fluorophenyl)[1,2,4]triazolo[4,3-b]pyridazin-7-yl)propan-1,1,1,3,3,3-d6-2-ol] it was 82 ± 2.8%; in that of `[2H]C([2H])([2H])C([2H])([2H])n1ncnc1COc1nn2c(-c3ccccc3F)nnc2cc1C(C([2H])([2H])[2H])(C([2H])([2H])[2H])C([2H])([2H])[2H]` [Compound 105], 90 ± 0.7%.

The values are drawn from US8993570B2, “Substituted triazolo-pyridazine derivatives” (Concert Pharmaceuticals, Inc., priority 2009, dated 2015).
